Source: patent US20220411362A1, “DITERPENOID COMPOUNDS THAT ACT ON PROTEIN KINASE C (PKC)” (K-Gen, Inc., priority 2019, published 2022)

Key:
[1] = biological target: T1, C1b domain of human PKCε (Homo sapiens, UniProt Q02156); assay: Competitive 3H-PDBu binding to C1b domain of PKCε
T1 construct: Genes encoding C1b domains of human PKCα, δ, ε, θ, and PKD1 (PKCμ) were synthesized; made in house; host or cells: E. coli BL21(DE3)
Procedure, shortened: (§1)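 Ki derived by Cheng-Prusoff from IC50, with each protein batch's measured ^3H-PDBu Kd. Displacement of ^3H-PDBu from E. coli-produced GST-fused C1b domains or full-length human PKC was run 10 min at 37°C plus 20 min on ice, with filter capture and scintillation counting.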

[2] = biological target: T2, C1b domain of human PKCδ (Homo sapiens, UniProt Q05655); assay: Competitive 3H-PDBu binding to C1b domain of PKCδ; details: Ki PKCδ, 3H-PDBu competition
T2 construct: Genes encoding C1b domains of human PKCα, δ, ε, θ, and PKD1 (PKCμ) were synthesized; made in house; host or cells: E. coli BL21(DE3)
T2 sequence (Q05655 230-280 limits assumed): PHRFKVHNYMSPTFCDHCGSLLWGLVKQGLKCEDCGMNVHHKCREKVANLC
Procedure, shortened: as §1

[3] = system: PANC1 cells; assay: Sphere formation assay (cancer stemness); assay type: cell-based; details: Homo sapiens, PANC-1, read-out: concentration exhibiting at least 50% inhibition on the sphere forming efficiency
Method: A group of diterpenoid compounds of the present disclosure were tested to assess their effects on blocking formation of spheres from cancer cell lines such as PANC1, a K-Ras mutant pancreatic cell line. Briefly, PANC1 cells were harvested, re-suspended as single cell suspensions, counted and seeded into Ultra Low Attachment Culture 96-well plate (Corning, Cat #3474) at 100 cells/well in 100 μl of complete media (with 10% FBS) containing 2% Matrigel (Corning, Cat #354234) and DMSO or compounds. Six replicates per condition were seeded. The seeded cells were placed in the 37° C. tissue culture incubator. 10 μl of low serum containing media (with 0.1% FBS) was added to each well every week. Spheres formed after 3-4 weeks were counted. Sphere forming efficiency was expressed as percentage of # of spheres/# of cells seeded.

[4] = system: Panc2.13 (Pancreatic) cell line; assay: Proliferation of Panc2.13; assay type: cell-based; details: for ratio of (IC50 of K01)/(IC50 of compound), Panc2.13: value in parenthesis; for IC50: read-out: IC50 in μM Panc2.13 (Pancreatic)
Procedure, shortened: (§2)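 After a 24 h settling period at 37° C, each line received compound from a 3-fold serial series with DMSO capped at 0.25%. Incubation ran 96 h before CellTiter Glo reagent was added. Inhibition % = (Max − sample)/Max × 100, with Max from DMSO-treated cells.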

[5] = system: Mino (Lymphoma) cell line; assay: Proliferation of Mino; assay type: cell-based; details: for IC50: Homo sapiens, MINO, read-out: IC50 in μM Mino (Lymphoma); for ratio of (IC50 of K01)/(IC50 of compound), Mino: value in parenthesis
Procedure, shortened: as §2

[6] = biological target: T3, C1b domain of human PKD1 (PKCμ) (Homo sapiens, UniProt Q15139); assay: biochemical; assay type: binding
T3 construct: Genes encoding C1b domains of human PKCα, δ, ε, θ, and PKD1 (PKCμ) were synthesized; made in house; host or cells: E. coli BL21(DE3)
T3 sequence (Q15139 270-320 limits assumed): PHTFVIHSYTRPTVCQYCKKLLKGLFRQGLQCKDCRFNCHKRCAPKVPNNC
Procedure, shortened: as §1

[7] = system: A549 non-small cell lung cancer cell line; assay: Proliferation of A549 (CellTiter Glo); assay type: cell-based; details: Homo sapiens, A549, 96 h, read-out: IC50 μM (A549 Cell Line)
Procedure, shortened: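 Luminescent CellTiter Glo read-out after 96 h compound exposure of A549 cells plated at 1,000/well and rested 24 h at 37° C; DMSO kept ≤0.25%, dilutions 3-fold. Inhibition taken relative to DMSO-treated wells; IC50, relative IC50 and top inhibition derived by curve fitting.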

[8] = system: phosphorylation of PKCμ, PKCδ and Erk1/2 in A549 lung cancer cells; assay type: cell-based; details: 0.3 μM, 30 minutes, Western blot (FIG. 1)
Method: Cells were then treated with different drugs at indicated concentrations for 30 minutes. […] Imagequant LAS4000 (GE) was used to scan membranes if secondary antibodies anti-mouse IgG HRP conjugate or anti-rabbit IgG HRP conjugate (dilutions from 1:2000-1:10000) were used. For ProteinSimple Wes system, manufacture's procedure was followed (ProteinSimple 12-230 kDa Wes Separation Module) for sample preparation, loading, running, and data analysis.
Phosphorylation of these sites has been linked to acute activation or catalytic activity of the PKC isoforms and Erk1/2. High level of phosphorylation indicates strong activation.

T1 sequence (Q02156 242-292 limits assumed): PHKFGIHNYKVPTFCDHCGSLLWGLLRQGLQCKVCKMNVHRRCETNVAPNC

| Structure (SMILES) | Ki [1] [nM] | Ki [2] [nM] | IC50 [3] [nM] | ratio of (IC50 of K01)/(IC50 of compound), Panc2.13 [4] | IC50 [4] [µM] | IC50 [5] [µM] | ratio of (IC50 of K01)/(IC50 of compound), Mino [5] | Ki [6] [nM] | IC50 [7] [µM] | phosphorylation of PKC (PKD/PKCμ), PKCδ and Erk1/2 [8] |
| --- | --- | --- | --- | --- | --- | --- | --- | --- | --- | --- |
| CC1=C[C@H]2[C@@]3(O)[C@H](C)C[C@]4(OC(=O)[C@H](N)CCCCCCc5ccccc5)[C@H]([C@@H]3C=C(CO)C[C@]2(O)C1=O)C4(C)C [Compound K101-C134801] | 1 to 30 | 5 to 10 | ≤ 150 | 13.4 | 0.06 to 0.1 | 0.001 to 0.01 | 21.3 | < 5 | 0.01 to 0.03 | – |
| CC1=C[C@H]2[C@@]3(O)[C@H](C)C[C@]4(OC(=O)[C@@H](N)CCCCCCc5ccccc5)[C@H]([C@@H]3C=C(CO)C[C@]2(O)C1=O)C4(C)C [Compound K101-C134802] | 1 to 30 | < 5 | ≤ 50 | 57.3 | 0.01 to 0.03 | 0.001 to 0.01 | 52.2 | < 5 | 0.001 to 0.01 | – |
| CC1=C[C@H]2[C@@]3(O)[C@H](C)C[C@]4(OC(=O)[C@@H](N)[C@]56C[C@H]7C[C@H](C[C@H](C7)C5)C6)[C@H]([C@@H]3C=C(CO)C[C@]2(O)C1=O)C4(C)C [Compound K101-C1347] | 5 to 10 | < 5 | ≤ 50 | 71.7 | 0.01 to 0.03 | 0.001 to 0.01 | 52.2 | < 5 | 0.001 to 0.01 | – |
| CC1=C[C@H]2[C@@]3(O)[C@H](C)C[C@]4(OC(=O)[C@@H](N)CC5CCCCC5)[C@H]([C@@H]3C=C(CO)C[C@]2(O)C1=O)C4(C)C [Compound K101-C1327] | 1 to 30 | < 5 | – | 7.1 | 0.1 to 0.2 | 0.001 to 0.01 | 7.33 | < 5 | 0.06 to 0.1 | induced high levels of phosphorylation |
